Measured values reported in patent US10772856B2, “Compositions and methods of use of beta-hydroxy-beta-methylbutyrate (HMB) for decreasing fat mass” (Metabolic Technologies, Inc., priority 2015, dated 2020).

Columns and labels:
3T3-F442A adipocytes = assay: Lipolysis (glycerol release) in 3T3-F442A adipocytes; type: cell-based, Murine; settings: 1 hour
Method: Methods. Murine 3T3-F442A preadipocytes were grown until confluence. After confluence, 3T3-F442A cells were allowed to differentiate into adipocytes and become filled with triglycerides. Lipolysis was assessed as glycerol release from 3T3-F442A adipocytes in well plates. Adipocyte monolayers were incubated with Krebs-Ringer buffer containing Hepes (KRH), supplemented with 2% fatty acid-free BSA, 5 mM glucose, ADA and PIA. In addition, cells were treated with β-hydroxy-β-methylbutyrate (HMB) at either 0 (control), 0.1, 1, or 6 mM concentrations. Cells were incubated in the absence (Basal) or in the presence of 0.1 μM isoproterenol for 1 hour. Aliquots of the incubation medium were removed and frozen until glycerol determination. Glycerol was measured by a commercial enzymatic method. Data were presented as the fold increase over control. Results. […] Lipolysis in Human Subcutaneous Adipocytes Methods. Human subcutaneous adipocytes were obtained from donors and incubated in vitro. Lipolysis was assessed as glycerol release in well plates. Adipocyte were incubated with Krebs-Ringer buffer containing Hepes (KRH), supplemented with 4% fatty acid-free BSA, 5 mM glucose, ADA and PIA. In addition, cells were treated with β-hydroxy-β-methylbutyrate (HMB) at either 0 (control), 0.1, or 1 mM concentrations in the presence of 1.0 μM isoproterenol for 2 hours. Aliquots of the incubation medium were removed and frozen until glycerol determination. Glycerol was measured by a commercial enzymatic method. Data were presented as the fold increase over control. Results. […] Effect of HMB on Gene Expression in Differentiated Adipocytes SGBS human pre-adipocytes were differentiated into adipocytes and treated with 1 mM HMB for 4 days. The human Simpson-Golabi-Behmel syndrome (SGBS) preadipocyte cell strain cells originate from an adipose tissue specimen of a patient with GSBS. Microarrays (mRNAs) were performed. […] Similarly, cytokine receptor interaction and calcium signaling pathways are also elevated as measured by mRNAs.

[1] = test system: Human subcutaneous adipocytes; assay: Lipolysis (glycerol release) in human subcutaneous adipocytes; type: cell-based; settings: 1.0 μM isoproterenol, 2 hours
Method: (§1) Methods. Murine 3T3-F442A preadipocytes were grown until confluence. After confluence, 3T3-F442A cells were allowed to differentiate into adipocytes and become filled with triglycerides. Lipolysis was assessed as glycerol release from 3T3-F442A adipocytes in well plates. Adipocyte monolayers were incubated with Krebs-Ringer buffer containing Hepes (KRH), supplemented with 2% fatty acid-free BSA, 5 mM glucose, ADA and PIA. In addition, cells were treated with β-hydroxy-β-methylbutyrate (HMB) at either 0 (control), 0.1, 1, or 6 mM concentrations. Cells were incubated in the absence (Basal) or in the presence of 0.1 μM isoproterenol for 1 hour. Aliquots of the incubation medium were removed and frozen until glycerol determination. Glycerol was measured by a commercial enzymatic method. Data were presented as the fold increase over control. Results. […] Lipolysis in Human Subcutaneous Adipocytes Methods. Human subcutaneous adipocytes were obtained from donors and incubated in vitro. Lipolysis was assessed as glycerol release in well plates. Adipocyte were incubated with Krebs-Ringer buffer containing Hepes (KRH), supplemented with 4% fatty acid-free BSA, 5 mM glucose, ADA and PIA. […] Glycerol was measured by a commercial enzymatic method. […] Similarly, cytokine receptor interaction and calcium signaling pathways are also elevated as measured by mRNAs.

[2] = test system: SGBS human pre-adipocytes differentiated into adipocytes; assay: Microarray (mRNA) pathway analysis in differentiated SGBS adipocytes; type: cell-based; settings: 1 mM HMB for 4 days
Method: as §1

[3] = test system: Differentiated adipocytes; assay: Gene expression by qPCR in differentiated adipocytes; type: cell-based; settings: 1 mM HMB, 4 days
Method: Differentiated adipocytes were incubated for 4 days with 1 mM of HMB. RNA was extracted and gene expression was determined by qPCR. Gene expression for ATGL, ACOX, PGC1a, ATG7 and BNIP3 were analyzed. […] ATGL is highly expressed in adipose tissue of humans and mice. ACOX1, or acyl-CoA oxidase 1 is the first enzyme involved in peroxisomal fatty acid oxidation. This occurs when the fatty acid chains are too long to be handled by the mitochondria. The high-potential electrons generated are transferred to O2→H2O2 (+heat) which in the presence of catalase→H2O and O2. PGC1α is a key regulator of energy metabolism and is found to be very important in the development of brown adipose tissue which is the high energy yielding adipose tissue. Autophagy-related protein 7 (ATG7) regulates fat mass. Knocking ATG7 down will result in abnormal non-functional adipose tissue. Elevated levels increase tissue recycling. BNIP3 is another autophagy-related protein like ATG7 that appears to be significant. The gene expression results appear in FIG. 3.

[4] = test system: Differentiated human adipocytes (SGBS); assay: Phosphokinase protein array of SGBS adipocytes; type: cell-based; settings: 1 mM HMB, 4 days, vs untreated cells
Method: This approach was used to determine in non-biased way changes in protein phosphorylation that are known to influence activity of important signaling proteins. Differentiated human adipocytes were treated for 4 days with or without HMB (1 mM). Shown are only the significant increases above untreated cells in phosphorylation of the listed protein at the indicated phosphorylation site(s).

OP9 adipocytes = assay: Basal and isoproterenol stimulated lipolysis in differentiated OP9 adipocytes; type: cell-based
Method: As noted above, an increase in expression of ATGL in cells treated with HMB was observed, so the effect of HMB treatment on basal and isoproterenol stimulated lipolysis was determined directly in cultured adipocytes. The protocol of Viswanadha and Londos was used for optimization of conditions for measuring lipolysis in murine primary adipoctyes (J. Lipid Res. 2006. 47: 1859-1864) that include treatment with adenosine deaminase (ADA) to remove endogenous adenosine and then addition of ADA resistant PIA (phenylisopropyl-adenosine).
The following treatment strategies were tested: HMB doses of 0.1, 1 and 6 mM; 2 concentrations of the beta-adrenergic agonist isoproterenol 0.1 and 1 uM, and short term (immediately before lipolysis assay) vs. long term (48 h) HMB treatment (n=4 per treatment). Op9 adipocytes were used as SGBS cells take a long time (several weeks) to differentiate making them inconvenient to use.
Cells were pre-treated with varying concentrations of HMB in OP9 growth medium for 48 hrs. Following pre-treatment, cells were washed and incubated with Isoproterenol (0.1 or 1.0 uM) in lipolysis buffer: Krebs ringer bicarbonate (KRB) with 4% BSA. The medium also contained adenosine deaminase (ADA) and phenyl-isopropyl-adenosine (PIA) for 2 hrs at 37° C. ADA was added to remove endogenous adenosine and PIA, which is resistant to ADA, was used to have low standardized basal lipolysis. Following treatment, media was assayed for glycerol content and cells were lysed with RIPA buffer to determine protein concentration, *p<0.05, ** p<0.01. N=4.

[5] = after HMB is fed; cited from earlier work
[6] = healthy young or old adults; cited from earlier work
[7] = after administration; cited from earlier work
skeletal muscle = settings: acute ingestion of 2.4 grams; cited from earlier work

For `CC(C)(O)CC(=O)O` [HMB, β-hydroxy-β-methylbutyric acid], the “lipolysis (glycerol release, fold increase over control)” value (3T3-F442A adipocytes; 0.1 μM isoproterenol stimulation, 0.1 mM HMB) was “increased lipolysis”, the “lipolysis (glycerol release, fold increase over control)” value (3T3-F442A adipocytes; 0.1 μM isoproterenol stimulation, 6.0 mM HMB) was “decreased lipolysis” and the “lipolysis (glycerol release, fold increase over control)” value (3T3-F442A adipocytes; basal, 0.1 mM HMB) was “increased lipolysis above control”. For the same compound, the “lipolysis (glycerol release, fold increase over control)” value (3T3-F442A adipocytes; basal, 1 mM HMB) was “increased lipolysis above control”, the “lipolysis (glycerol release, fold increase over control)” value (3T3-F442A adipocytes; basal, 6.0 mM HMB) was “decreased lipolysis” and the “lipolysis (glycerol release, fold increase over control)” value ([1]; 0.1 mM HMB) was “increased lipolysis above that of control”. For the same compound, the “lipolysis (glycerol release, fold increase over control)” value ([1]; 1 mM HMB) was “increased lipolysis above that of control”, the “Effect on pathway: IL6 signaling (mRNA microarray)” value [2] was 2.53 fold and the “expression of ATGL” value [3] was “increase”. The “Fold Change with HMB, phosphorylation of CREB S133” value [4] was 1.233 Fold, the “Fold Change with HMB, phosphorylation of FGR Y412” value [4] was 1.262 Fold and the “Fold Change with HMB, phosphorylation of Fyn Y420” value [4] was 1.400 Fold. For the same compound, the “Fold Change with HMB, phosphorylation of GSK-3a/b S21/S9” value [4] was 1.255 Fold, the “Fold Change with HMB, phosphorylation of Lyn Y397” value [4] was 1.335 Fold and the “Fold Change with HMB, phosphorylation of P53 S46” value [4] was 0.834 Fold. The “Fold Change with HMB, phosphorylation of RSK1/2/3 S380/S386/S377” value [4] was 0.732 Fold, the “Fold Change with HMB, phosphorylation of STAT5a/b Y694/Y699” value [4] was 0.804 Fold and the “Fold Change with HMB, phosphorylation of Yes Y426” value [4] was 1.224 Fold. The “Fold Change with HMB, phosphorylation of p53 S15” value [4] was 0.621 Fold, the “change in AKT1/2/3 at Threonine 308” value [4] was “no change” and the “enhancement of lipolysis in response to isoproterenol” value (OP9 adipocytes; 0.1 mM HMB 48 h pre-treatment, 0.1 uM isoproterenol) was 2 fold. The “increase of lipolysis over no HMB” value (OP9 adipocytes; 1 mM HMB 48 h pre-treatment, 0.1 uM isoproterenol) was 4 fold, the “enhancement of lipolysis response to isoproterenol” value (OP9 adipocytes; 6 mM HMB 48 h pre-treatment, 0.1 uM isoproterenol) was 3 fold and the “increase of basal lipolysis” value (OP9 adipocytes; HMB pretreatment, ADA followed by PIA, no isoproterenol) was “about 2 fold”. For the same compound, the “enhancement of isoproterenol-stimulated lipolysis (glycerol)” value (OP9 adipocytes; pre-treatment with HMB for 48 h, all HMB doses) was 2-4 fold, the “loss of HMB to urine” value [5] was 20-50% and the side effects [6] was “no side effects”.
For `CC(C)(O)CC(=O)O` [HMB-FA], the “plasma levels of HMB compared with calcium HMB” value [7] is listed as “approximately double”, the “time to plasma levels compared with calcium HMB” value [7] is listed as “about one-quarter the time” and the “protein breakdown, change” value (skeletal muscle) is listed as −56%. The “skeletal muscle protein synthesis, change” value (skeletal muscle) was “+70%”.
In the case of `CC(C)NCC(O)c1ccc(O)c(O)c1` (centres unmarked) [isoproterenol, reference compound], the maximal lipolysis (OP9 adipocytes; higher concentrations of isoproterenol (1.0 vs 0.1 uM)) is reported as “reduced maximal lipolysis”.
